According to publication PMC8940841, “A metabolically stable PET tracer for imaging synaptic vesicle protein 2A: synthesis and preclinical characterization of [^18F]SDM-16” (European Journal of Nuclear Medicine and Molecular Imaging, 2021):
Like-named read-outs stand apart in the source and are kept apart here.

Columns and labels:
human SV2A = human SV2A (Homo sapiens, UniProt Q7L0J3); set-up: Duplicate samples of human frontal cortex gray matter were homogenized in PBS buffer; from tissue; host or cells: human frontal cortex gray matter homogenate; details: other SV2A ligands; read-out: Ki; cited from earlier work
Sequence of human SV2A (Q7L0J3 whole entry): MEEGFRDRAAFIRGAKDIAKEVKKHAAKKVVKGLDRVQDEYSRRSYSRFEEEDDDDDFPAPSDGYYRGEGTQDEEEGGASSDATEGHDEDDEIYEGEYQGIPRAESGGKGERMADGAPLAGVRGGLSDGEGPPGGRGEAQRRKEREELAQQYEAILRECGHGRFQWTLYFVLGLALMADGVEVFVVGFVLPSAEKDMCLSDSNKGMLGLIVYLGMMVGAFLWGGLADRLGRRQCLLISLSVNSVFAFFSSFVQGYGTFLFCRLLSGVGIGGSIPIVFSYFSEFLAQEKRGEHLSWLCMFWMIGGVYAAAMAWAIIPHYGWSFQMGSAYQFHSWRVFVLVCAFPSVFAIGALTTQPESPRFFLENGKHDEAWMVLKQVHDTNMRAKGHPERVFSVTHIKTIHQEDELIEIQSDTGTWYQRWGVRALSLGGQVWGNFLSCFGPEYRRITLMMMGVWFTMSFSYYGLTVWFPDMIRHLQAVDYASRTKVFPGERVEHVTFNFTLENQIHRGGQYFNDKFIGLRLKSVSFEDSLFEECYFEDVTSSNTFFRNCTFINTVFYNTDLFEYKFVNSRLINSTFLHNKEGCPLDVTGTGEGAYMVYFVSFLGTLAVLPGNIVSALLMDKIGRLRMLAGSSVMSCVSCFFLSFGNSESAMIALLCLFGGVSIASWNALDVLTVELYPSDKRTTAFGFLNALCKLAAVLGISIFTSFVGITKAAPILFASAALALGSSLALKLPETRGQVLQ

SV2A [1] = assay: Brain PET imaging with 1TC kinetic modeling; details: for VT (baseline): 1TC
[2] = Measurement of lipophilicity (octanol / PBS pH 7.4); type: physicochemical; details: for logP: octanol/PBS pH 7.4
Procedure: The logP of [^18F]SDM-16 was determined by a method modified from previously published procedures. Briefly, an aliquot of […] (10 µCi) of the radioligand was added to a 2-mL microtube containing 0.8 mL of octanol and 0.8 mL of 1 × phosphate buffered saline (1 × PBS, pH 7.4). The mixture was vortexed for 30 s and then centrifuged at 2000 g for 2 min. A subsample of the octanol (0.1 mL) and 1 × PBS (0.5 mL) layers was evaluated with a gamma counter. The major portion of the octanol layer (0.5 mL) was diluted with another 0.3 mL of octanol, mixed with a fresh portion of 0.8 mL of PBS, vortexed, centrifuged, and analyzed as described above. This process was repeated until consistent log P values were obtained, with five consecutive equilibration procedures being performed for each logP measurement. Four separate measurements were performed for [^18F]SDM-16 on different days.

[3] = Plasma radiometabolite analysis during PET scans; type: in vivo, rhesus monkeys; details: 30 min p.i.
Procedure: Arterial blood samples were collected during the PET scans to measure the radioactivity in plasma for generation of the metabolite-corrected arterial plasma input function. Plasma radiometabolite analysis was performed using the column-switching method, following a published protocol. Briefly, arterial blood samples were collected at 3-, 8-, 15-, 30-, 60-, 90-, 120-, and 180-min post-injection (p. i.), treated with urea (8 M), filtered, and injected onto a self-packed short column (4.6 × 19 mm) eluting with 1% MeCN in water at a flow rate of 2 mL/min. The sample was then back flushed onto a Gemini-NX column (5 μm, 4.6 mm × 250 mm) eluting with 40% MeCN/60% 0.1 M ammonium formate (pH 6.4) at a flow rate of 1.2 mL/min. The eluent was fraction-collected using an automated spectrum chromatography CF-1 fraction collector. Activity in the whole blood, plasma, filtrated plasma-urea mix, filters, and HPLC fractions were counted with automatic gamma well-counter (Wizard 2, PerkinElmer). The sample recovery rate, extraction efficiency, and HPLC fraction recovery were monitored. The unmetabolized [^18F]SDM-16 parent fraction was determined as the ratio of the sum of radioactivity in fractions containing the parent compound to the total amount of radioactivity collected and fitted with inverted Gamma4 approaches.
[^18F]SDM-16 had higher metabolite-corrected plasma SUV than the other SV2A radiotracers, indicating slower plasma clearance and higher metabolic stability (Fig. 2a). Whole-blood and plasma-input functions were highly consistent between the two animals, with a stable plasma to whole-blood ratio of 0.93 ± 0.13 over the entire 180-min acquisition period (Fig. S1).

[4] = Free base fraction in plasma by modified Henderson-Hasselbalch equation (Eq. 1); details: Eq. 1, plasma pH 7.4
[5] = Plasma free fraction (fp) by ultrafiltration; type: in vitro ADME, rhesus monkey; details: monkey, plasma (separated from spiked whole blood)
Procedure: The unbound fraction of [^18F]SDM-16 in plasma (fp) of rhesus monkey was measured in triplicate using the ultrafiltration method. Briefly, [^18F]SDM-16 solution was added to 3 mL of whole blood. After incubation at ambient temperature for 5 min, the blood sample was centrifuged at 3900 rpm for 5 min. A sample of the supernatant plasma (0.3 mL) was loaded onto the reservoir of a Centrifree® Ultrafiltration device (Merck Millipore Ltd. Tullagreen, Carrigtwohill, Co. Cork, IRELAND) in triplicate and centrifuged at 1228 g for 20 min. The fp value was calculated as the ratio of radioactivity in the filtrate to that in the plasma.

[6] = Brain PET imaging with 1TC kinetic modeling; details: rhesus monkey
SV2A [7] = details: 1TC, cited from earlier work
SV2A [8] = biological target: SV2A (Macaca mulatta, UniProt H9EQH8); details: previously determined; cited from earlier work
Sequence of SV2A (Macaca mulatta, UniProt H9EQH8) (H9EQH8 1-742): as the sequence (Q7L0J3 whole entry) above, with G64S, I572V counted along it

Cc1cnccc1CN1C[C@@H](c2cc(F)cc(F)c2)CC1=O [SynVesT-1]
Ki (human SV2A): 3.1 nM

Cc1cnccc1CN1C[C@@H](c2cc(F)c(F)c(F)c2)CC1=O [UCB-J]
Ki (human SV2A): 2.6 nM

[11CH3]n1cncc1CN1C[C@@H](c2cc(F)cc(F)c2)CC1=O [[^11C]UCB-A]
K1 (SV2A [1]; Amygdala): 0.11 ± 0.01 mL/cm^3 per min
VT (baseline) (SV2A [1]; Amygdala): 15.6 ± 8.2 mL/cm^3
K1 (SV2A [1]; Anterior cingulate): 0.15 ± 0.03 mL/cm^3 per min
K1 (SV2A [1]; Brainstem): 0.15 ± 0.03 mL/cm^3 per min
VT (baseline) (SV2A [1]; Brainstem): 21.0 ± 4.9 mL/cm^3
K1 (SV2A [1]; Caudate): 0.13 ± 0.02 mL/cm^3 per min
K1 (SV2A [1]; Cerebellum): 0.17 ± 0.03 mL/cm^3 per min
K1 (SV2A [1]; Cingulate cortex): 0.17 ± 0.034 mL/cm^3 per min
K1 (SV2A [1]; Frontal cortex): 0.15 ± 0.03 mL/cm^3 per min
VT (baseline) (SV2A [1]; Frontal cortex): 49.0 ± 18.2 mL/cm^3
K1 (SV2A [1]; Globus pallidus): 0.10 ± 0.01 mL/cm^3 per min
K1 (SV2A [1]; Hippocampus): 0.12 ± 0.02 mL/cm^3 per min
VT (baseline) (SV2A [1]; Hippocampus): 31.4 ± 16.6 mL/cm^3
K1 (SV2A [1]; Insular cortex): 0.15 ± 0.01 mL/cm^3 per min
VT (baseline) (SV2A [1]; Insular cortex): 57.8 ± 26.9 mL/cm^3
K1 (SV2A [1]; Mean ± SD over brain regions): 0.14 ± 0.03 mL/cm^3 per min
K1 (SV2A [1]; Nucleus accumbens): 0.13 ± 0.02 mL/cm^3 per min
VT (baseline) (SV2A [1]; Nucleus accumbens): 34.1 ± 4.8 mL/cm^3
K1 (SV2A [1]; Occipital cortex): 0.19 ± 0.03 mL/cm^3 per min
VT (baseline) (SV2A [1]; Occipital cortex): 47.0 ± 16.6 mL/cm^3
K1 (SV2A [1]; Putamen): 0.17 ± 0.03 mL/cm^3 per min
K1 (SV2A [1]; Temporal cortex): 0.14 ± 0.02 mL/cm^3 per min
VT (baseline) (SV2A [1]; Temporal cortex): 51.4 ± 26.2 mL/cm^3
K1 (SV2A [1]; Thalamus): 0.14 ± 0.03 mL/cm^3 per min
SUV (brain tracer uptake) (SV2A [1]; baseline scan, end of scan, frontal cortex and putamen): about 4
logD ([2]; octanol / 1x PBS, pH 7.4): 1.1
logP [2]: 1.1
parent fraction in plasma [3]: 70 ± 7%
fraction present in plasma as free base [4]: 49%
fraction unbound at 5 min [5]: 0.75

[11CH3]c1cnccc1CN1C[C@@H](c2cc(F)c(F)c(F)c2)CC1=O [[^11C]UCB-J]
BPND, VND method (SV2A [1]; Amygdala): 2.77 ± 0.06
BPND, VT(CS) method (SV2A [1]; Amygdala): 0.85 ± 0.34
K1 (SV2A [1]; Amygdala): 0.48 ± 0.14 mL/cm^3 per min
BPND, VND method (SV2A [1]; Anterior cingulate): 6.84 ± 0.18
BPND, VT(CS) method (SV2A [1]; Anterior cingulate): 2.70 ± 0.74
K1 (SV2A [1]; Anterior cingulate): 0.73 ± 0.20 mL/cm^3 per min
BPND, VND method (SV2A [1]; Brainstem): 2.61 ± 0.44
BPND, VT(CS) method (SV2A [1]; Brainstem): 0.76 ± 0.21
K1 (SV2A [1]; Brainstem): 0.89 ± 0.17 mL/cm^3 per min
BPND, VND method (SV2A [1]; Caudate): 5.78 ± 0.43
BPND, VT(CS) method (SV2A [1]; Caudate): 2.40 ± 0.72
K1 (SV2A [1]; Caudate): 0.75 ± 0.12 mL/cm^3 per min
BPND, VND method (SV2A [1]; Cerebellum): 4.43 ± 0.83
BPND, VT(CS) method (SV2A [1]; Cerebellum): 1.95 ± 0.36
K1 (SV2A [1]; Cerebellum): 0.81 ± 0.16 mL/cm^3 per min
BPND, VND method (SV2A [1]; Cingulate cortex): 7.37 ± 1.18
BPND, VT(CS) method (SV2A [1]; Cingulate cortex): 3.17 ± 0.84
BPND, VND method (SV2A [1]; Frontal cortex): 7.28 ± 1.00
BPND, VT(CS) method (SV2A [1]; Frontal cortex): 3.17 ± 0.84
K1 (SV2A [1]; Frontal cortex): 0.66 ± 0.16 mL/cm^3 per min
BPND, VND method (SV2A [1]; Globus pallidus): 3.31 ± 0.38
BPND, VT(CS) method (SV2A [1]; Globus pallidus): 1.10 ± 0.28
K1 (SV2A [1]; Globus pallidus): 0.65 ± 0.11 mL/cm^3 per min
in vivo Kd ratio, Kd(tracer)/Kd([^18F]SDM-16) (SV2A [1]; Guo plot of baseline VT): 0.38
BPND, VND method (SV2A [1]; Hippocampus): 4.47 ± 0.14
BPND, VT(CS) method (SV2A [1]; Hippocampus): 1.59 ± 0.39
K1 (SV2A [1]; Hippocampus): 0.61 ± 0.12 mL/cm^3 per min
BPND, VND method (SV2A [1]; Insular cortex): 7.24 ± 0.73
BPND, VT(CS) method (SV2A [1]; Insular cortex): 3.12 ± 0.81
K1 (SV2A [1]; Insular cortex): 0.75 ± 0.17 mL/cm^3 per min
K1 (SV2A [1]; Mean ± SD over brain regions): 0.72 ± 0.17 mL/cm^3 per min
BPND, VND method (SV2A [1]; Nucleus accumbens): 7.16 ± 1.13
BPND, VT(CS) method (SV2A [1]; Nucleus accumbens): 3.12 ± 0.81
K1 (SV2A [1]; Nucleus accumbens): 0.77 ± 0.17 mL/cm^3 per min
BPND, VND method (SV2A [1]; Occipital cortex): 7.01 ± 0.88
BPND, VT(CS) method (SV2A [1]; Occipital cortex): 2.97 ± 0.65
K1 (SV2A [1]; Occipital cortex): 0.81 ± 0.21 mL/cm^3 per min
BPND, VND method (SV2A [1]; Putamen): 6.00 ± 0.24
BPND, VT(CS) method (SV2A [1]; Putamen): 2.42 ± 0.63
K1 (SV2A [1]; Putamen): 1.03 ± 0.19 mL/cm^3 per min
BPND, VND method (SV2A [1]; Temporal cortex): 6.57 ± 0.89
BPND, VT(CS) method (SV2A [1]; Temporal cortex): 2.79 ± 0.61
K1 (SV2A [1]; Temporal cortex): 0.66 ± 0.14 mL/cm^3 per min
BPND, VND method (SV2A [1]; Thalamus): 5.21 ± 0.57
BPND, VT(CS) method (SV2A [1]; Thalamus): 2.03 ± 0.62
K1 (SV2A [1]; Thalamus): 0.72 ± 0.24 mL/cm^3 per min
fraction unbound ([6]; brain tissue, intravenous): 0.073
logP [2]: 2.46
parent fraction in plasma [3]: 40 ± 6%
VT (baseline) (SV2A [7]; Amygdala): 24.4 ± 2.0 mL/cm^3
VT (baseline) (SV2A [7]; Brainstem): 23.5 ± 2.8 mL/cm^3
VT (baseline) (SV2A [7]; Caudate): 44.8 ± 4.6 mL/cm^3
VT (baseline) (SV2A [7]; Centrum semiovale): 13.6 ± 2.9 mL/cm^3
VT (baseline) (SV2A [7]; Cerebellum): 39.5 ± 5.8 mL/cm^3
VT (baseline) (SV2A [7]; Cingulate cortex): 55.6 ± 10.0 mL/cm^3
VT (baseline) (SV2A [7]; Frontal cortex): 55.4 ± 8.2 mL/cm^3
VT (baseline) (SV2A [7]; Globus pallidus): 27.9 ± 3.0 mL/cm^3
VT (baseline) (SV2A [7]; Hippocampus): 34.4 ± 2.8 mL/cm^3
VT (baseline) (SV2A [7]; Insular cortex): 54.6 ± 6.7 mL/cm^3
VT (baseline) (SV2A [7]; Nucleus accumbens): 53.9 ± 9.2 mL/cm^3
VT (baseline) (SV2A [7]; Occipital cortex): 52.9 ± 7.0 mL/cm^3
VT (baseline) (SV2A [7]; Putamen): 45.2 ± 3.0 mL/cm^3
VT (baseline) (SV2A [7]; Temporal cortex): 50.4 ± 6.9 mL/cm^3
VT (baseline) (SV2A [7]; Thalamus): 40.3 ± 6.4 mL/cm^3
VND (SV2A [8]): 6.27 mL/cm^3
fraction unbound at 5 min [5]: 0.46

Cc1cnccc1CN1C[C@@H](c2cccc([18F])c2)CC1=O [[^18F]SynVesT-2]
fraction unbound ([6]; in vivo): 0.195
logP [2]: 2.17
VND (SV2A [8]): 2.10 mL/cm^3
fraction unbound at 5 min [5]: 0.41
